These results are taken from article PMC12373508, “D-cysteine impairs tumour growth by inhibiting cysteine desulfurase NFS1” (Nature Metabolism, 2025).

The Kd is a measure of binding affinity in units of concentration.

Experiment [1] deals with T1, NFS1 (Homo sapiens, UniProt Q9Y697). Briefly: X-ray crystal structure after incubation with […] ligand. In kind it is binding.
Target sequence in this assay (Q9Y697 56-457): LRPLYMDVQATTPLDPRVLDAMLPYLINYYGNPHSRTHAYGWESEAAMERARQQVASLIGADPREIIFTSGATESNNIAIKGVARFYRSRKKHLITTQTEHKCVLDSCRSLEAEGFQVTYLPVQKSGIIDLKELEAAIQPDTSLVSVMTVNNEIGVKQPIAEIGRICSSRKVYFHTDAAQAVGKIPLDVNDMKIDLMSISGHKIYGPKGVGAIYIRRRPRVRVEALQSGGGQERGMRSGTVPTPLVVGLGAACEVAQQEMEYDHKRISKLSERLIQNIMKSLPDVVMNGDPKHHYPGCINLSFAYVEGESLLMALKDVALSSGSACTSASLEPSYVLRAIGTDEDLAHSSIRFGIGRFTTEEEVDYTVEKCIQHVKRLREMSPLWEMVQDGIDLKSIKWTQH
Target sequence in this assay (Q9HD34 whole entry partner): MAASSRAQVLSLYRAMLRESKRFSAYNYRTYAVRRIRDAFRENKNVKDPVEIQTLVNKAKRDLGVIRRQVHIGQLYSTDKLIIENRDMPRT
Target sequence in this assay (P0A6A8 2-78 partner): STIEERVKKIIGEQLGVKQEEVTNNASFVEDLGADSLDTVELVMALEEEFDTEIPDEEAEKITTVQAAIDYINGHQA
Target sequence in this assay (Q9H1K1 35-167 partner): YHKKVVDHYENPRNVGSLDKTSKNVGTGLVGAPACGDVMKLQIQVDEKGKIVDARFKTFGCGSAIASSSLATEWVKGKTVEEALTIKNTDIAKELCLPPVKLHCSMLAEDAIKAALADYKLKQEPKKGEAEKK
The target in experiment [2] is NFS1 (Homo sapiens, UniProt Q9Y697, C381S). Briefly: microscale thermophoresis. In kind it is binding. (In MST a laser heats a spot of the sample, and binding alters the fluorescence response.)
Chain of NFS1 (Homo sapiens, UniProt Q9Y697, C381S) (Q9HD34 whole entry, other chains not shown): as the sequence (Q9HD34 whole entry partner) above
Chain of NFS1 (Homo sapiens, UniProt Q9Y697, C381S) (Q9Y697 56-457 C381S, other chains not shown): as the sequence (Q9Y697 56-457) above, with C326S counted along it
Experiment [3] concerns the target T1, NFS1. Briefly: reconstituted [2Fe-2S] cluster synthesis by circular dichroism; UV/Vis of Cys-ketimine formation. In kind it is biochemical. A general note: Circular dichroism is the unequal absorption of left and right circularly polarised light.
Target sequence in this assay (Q9Y697 56-457, other chains not shown): as the sequence (Q9Y697 56-457) above
Target sequence in this assay (Q9HD34 whole entry partner, other chains not shown): as the sequence (Q9HD34 whole entry partner) above
Target sequence in this assay (Q16595 81-210 partner, other chains not shown): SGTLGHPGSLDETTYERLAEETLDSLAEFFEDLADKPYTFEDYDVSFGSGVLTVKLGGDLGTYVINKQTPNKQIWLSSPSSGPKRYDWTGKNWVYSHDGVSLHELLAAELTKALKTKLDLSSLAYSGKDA
Target sequence in this assay (Q9H1K1 35-167 partner, other chains not shown): as the sequence (Q9H1K1 35-167 partner) above

In the case of `C#CC[C@H](N)C(=O)O` [PG, L-propargylglycine], the “X-ray crystal structure after incubation with 1 mM ligand” value in experiment [1] is recorded as “in the NFS1 active site, we observed an external L-propargylglycine-ketimine”.

Take `N[C@@H](CS)C(=O)O` [L-Cys, L-cysteine]: the Kd in experiment [2] came out at 2.15 µM.

Take `N[C@H](CS)C(=O)O` [D-Cys, D-cysteine]: the “reconstituted [2Fe-2S] cluster synthesis by circular dichroism; UV/Vis of Cys-ke” value in experiment [3] is listed as “when D-Cys is present in excess, the NFS1 enzymatic activity is inhibited”. The Kd in experiment [2] was 25.6 µM.
